Reference: patent publication US20130102631A1, “NOVEL MICROBIOCIDAL DIOXIME ETHER DERIVATIVES” (SYNGENTA CROP PROTECTION LLC, priority 2010, published 2013)

Legend:
[1] = test system: Puccinia recondita f. sp. tritici; assay: Puccinia recondita f. sp. tritici / wheat / leaf disc curative (brown rust); type: in vivo; details: foliar, wheat leaf segments cv Kanzler, 200 ppm applied 1 day after inoculation, assessed 6-8 days after application
Procedure: Puccinia recondita f. sp. tritici/Wheat/Leaf Disc Curative (Brown Rust): Wheat leaf segments cv Kanzler were placed on agar in 24-well plates. The leaf segments were inoculated with a spore suspension of the fungus. The plates were stored in darkness at 19° C. and 75% relative humidity. The formulated test compound diluted in water was applied at an application rate of 200 ppm 1 day after inoculation. […]-2.508; 5.561; 2.561; E/E-2.208; 2.513; 2.559; 2.556; 2.555; 2.374; 2.552; 2.537; 2.519; 2.516; 2.514; […].002; 2.512; E/E-2.507

Glomerella lagenarium = Glomerella lagenarium (Colletotrichum lagenarium) / liquid culture (anthracnose); type: cell-based; details: Colletotrichum orbiculare; at ≦200 ppm, liquid culture PDB, inhibition of growth photometrically 3-4 days after application; read-out: control of Glomerella lagenarium
Outline: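 Glomerella lagenarium conidia in potato dextrose broth added to test compound supplied in DMSO in microtiter wells. Plates incubated at 24° C.; growth inhibition measured photometrically 3-4 days after application.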

[2] = test system: Mycosphaerella graminicola (Septoria tritici); assay: Mycosphaerella graminicola (Septoria tritici) / liquid culture (Septoria blotch); type: cell-based; details: Zymoseptoria tritici; at ≦200 ppm, liquid culture PDB, inhibition of growth photometrically 4-5 days after application; read-out: control of Mycosphaerella graminicola
Pyrenophora teres = Pyrenophora teres / barley / leaf disc preventative (net blotch); type: in vivo; details: foliar, barley leaf segments cv Hasso, inoculated two days after application, assessed 5-7 days after application
Procedure: Pyrenophora teres/Barley/Leaf Disc Preventative (Net Blotch): Barley leaf segments cv Hasso are placed on agar in a 24-well plate and sprayed with formulated test compound diluted in water at an application rate of 200 ppm. The leaf segments are inoculated with a spore suspension of the fungus two days after application of the test solution. The inoculated leaf segments are incubated at 20° C. and 65% relative humidity under a light regime of 12/12 h (light/dark) in a climate cabinet and the activity of a compound is assessed as disease control compared to untreated when an appropriate level of disease damage appears in untreated check leaf segments (5-7 days after application). […]-2.507; 5.561; 2.561; E/E-2.208; P.57; 2.513; 2.559; 2.558; 2.556; 2.555; 2.374; 2.552; 2.544; 2.537; 2.533; 2.530; 2.528; 2.519; 2.510; 2.516; 2.514; E/E-5.167; E/E-3.002; 2.512

[3] = test system: Phaeosphaeria nodorum (Septoria nodorum); assay: Phaeosphaeria nodorum (Septoria nodorum) / wheat / leaf disc preventative (glume blotch); type: in vivo; details: Parastagonospora nodorum, foliar, wheat leaf segments cv Kanzler, inoculated 2 days after application, assessed 5-7 days after application
Outline: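 Wheat cv Kanzler leaf segments on agar were sprayed with formulated compound at 200 ppm and inoculated with spores 2 days later. Incubation at 20 °C, 75% RH, 12/12 h light/dark; percent disease control versus untreated scored 5–7 days after application.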

COc1cccc(/C(C)=N/OCC(C)(C)CO/N=C2\CCCc3ccc(C)nc32)n1 [Compound 2.374]
≥ 80%: pest or weed control at 200 ppm [1] | inhibition of growth at up to 200 µg/mL (Glomerella lagenarium) | inhibition of growth at up to 200 µg/mL [2] | pest or weed control at 200 ppm (Pyrenophora teres) | pest or weed control at 200 ppm [3]

C/C(=N\OCC(C)(C)CO/N=C1\CCCc2ccc(C)nc21)c1ccc2ccccc2n1 [Compound 2.512]
≥ 80%: pest or weed control at 200 ppm [1] | inhibition of growth at up to 200 µg/mL (Glomerella lagenarium) | inhibition of growth at up to 200 µg/mL [2] | pest or weed control at 200 ppm (Pyrenophora teres) | pest or weed control at 200 ppm [3]

C/C(=N\OCC(C)(C)CO/N=C1\CCCc2ccc(C)nc21)c1ccc2c(n1)CCCC2 [Compound 2.513]
≥ 80%: pest or weed control at 200 ppm [1] | inhibition of growth at up to 200 µg/mL (Glomerella lagenarium) | inhibition of growth at up to 200 µg/mL [2] | pest or weed control at 200 ppm (Pyrenophora teres) | pest or weed control at 200 ppm [3]

C/C(=N\OCCCO/N=C1\CCCc2ccc(C)nc21)c1cccc(-c2ccccc2)n1 [Compound 2.514]
≥ 80%: pest or weed control at 200 ppm [1] | inhibition of growth at up to 200 µg/mL (Glomerella lagenarium) | inhibition of growth at up to 200 µg/mL [2] | pest or weed control at 200 ppm (Pyrenophora teres) | pest or weed control at 200 ppm [3]

CC/C(=N\OCC(C)(C)CO/N=C1\CCCc2ccc(C)nc21)c1ccccn1 [Compound 2.516]
≥ 80%: pest or weed control at 200 ppm [1] | inhibition of growth at up to 200 µg/mL (Glomerella lagenarium) | inhibition of growth at up to 200 µg/mL [2] | pest or weed control at 200 ppm (Pyrenophora teres) | pest or weed control at 200 ppm [3]

C/C(=N/OCC(C)(C)CO/N=C1\CCCc2ccc(C)nc21)c1ccccn1 [Compound 2.519]
≥ 80%: pest or weed control at 200 ppm [1] | inhibition of growth at up to 200 µg/mL (Glomerella lagenarium) | inhibition of growth at up to 200 µg/mL [2] | pest or weed control at 200 ppm (Pyrenophora teres) | pest or weed control at 200 ppm [3]

Cc1ccc2c(n1)/C(=N/OCC(C)(C)CO/N=C/c1cccc(Oc3ccccc3)n1)CCC2 [Compound 2.530]
≥ 80%: inhibition of growth at up to 200 µg/mL (Glomerella lagenarium) | inhibition of growth at up to 200 µg/mL [2] | pest or weed control at 200 ppm (Pyrenophora teres) | pest or weed control at 200 ppm [3]

Cc1ccc(O)c(/C=N/OCC(C)(C)CO/N=C2\CCCc3ccc(C)nc32)n1 [Compound 2.533]
≥ 80%: inhibition of growth at up to 200 µg/mL (Glomerella lagenarium) | inhibition of growth at up to 200 µg/mL [2] | pest or weed control at 200 ppm (Pyrenophora teres) | pest or weed control at 200 ppm [3]

C/C(=N\OCC(C)(C)CO/N=C1\CCCc2ccc(Cl)nc21)c1cc(C)cc(C)n1 [Compound 2.555]
≥ 80%: pest or weed control at 200 ppm [1] | inhibition of growth at up to 200 µg/mL (Glomerella lagenarium) | inhibition of growth at up to 200 µg/mL [2] | pest or weed control at 200 ppm (Pyrenophora teres) | pest or weed control at 200 ppm [3]

C/C(=N\OCC(C)(C)CO/N=C1\CCCc2ccc(Oc3ccccc3)nc21)c1cc(C)cc(C)n1 [Compound 2.556]
≥ 80%: pest or weed control at 200 ppm [1] | inhibition of growth at up to 200 µg/mL (Glomerella lagenarium) | inhibition of growth at up to 200 µg/mL [2] | pest or weed control at 200 ppm (Pyrenophora teres) | pest or weed control at 200 ppm [3]

C/C(=N\OCC(C)(C)CO/N=C1\CCCc2ccc(-c3cccc(C)n3)nc21)c1cc(C)cc(C)n1 [Compound 2.559]
≥ 80%: pest or weed control at 200 ppm [1] | inhibition of growth at up to 200 µg/mL (Glomerella lagenarium) | inhibition of growth at up to 200 µg/mL [2] | pest or weed control at 200 ppm (Pyrenophora teres) | pest or weed control at 200 ppm [3]

C/C(=N\OCC(C)(C)CO/N=C1\CCCc2c1nc1ccccc1c2C)c1cc(C)cc(C)n1 [Compound 2.561]
≥ 80%: pest or weed control at 200 ppm [1] | inhibition of growth at up to 200 µg/mL (Glomerella lagenarium) | inhibition of growth at up to 200 µg/mL [2] | pest or weed control at 200 ppm (Pyrenophora teres) | pest or weed control at 200 ppm [3]

C/C(=N\OCC1(CO/N=C2\CCCc3c2nc2ccccc2c3C)CC1)c1cc(C)cc(C)n1 [Compound 5.561]
≥ 80%: pest or weed control at 200 ppm [1] | inhibition of growth at up to 200 µg/mL (Glomerella lagenarium) | inhibition of growth at up to 200 µg/mL [2] | pest or weed control at 200 ppm (Pyrenophora teres) | pest or weed control at 200 ppm [3]

C/C(=N\OCC(C)(C)CO/N=C1\CCCc2ccc(C)nc21)c1cccc(C)n1 [E/E-2.002]
≥ 80%: pest or weed control at 200 ppm [1] | inhibition of growth at up to 200 µg/mL (Glomerella lagenarium) | inhibition of growth at up to 200 µg/mL [2] | pest or weed control at 200 ppm (Pyrenophora teres) | pest or weed control at 200 ppm [3]

C/C(=N\OCC(C)(C)CO/N=C1\CCCc2ccc(C)nc21)c1cc(C)cc(C)n1 [E/E-2.168]
≥ 80%: pest or weed control at 200 ppm [1] | inhibition of growth at up to 200 µg/mL (Glomerella lagenarium) | inhibition of growth at up to 200 µg/mL [2] | pest or weed control at 200 ppm (Pyrenophora teres) | pest or weed control at 200 ppm [3]

Cc1cccc(/C(=N/OCC(C)(C)CO/N=C2\CCCc3ccc(C)nc32)c2ccccc2)n1 [E/E-2.474]
≥ 80%: pest or weed control at 200 ppm [1] | inhibition of growth at up to 200 µg/mL (Glomerella lagenarium) | inhibition of growth at up to 200 µg/mL [2] | pest or weed control at 200 ppm (Pyrenophora teres) | pest or weed control at 200 ppm [3]

Cc1ccc2c(n1)/C(=N/OCC(C)(C)CO/N=C/c1ccc3ccccc3n1)CCC2 [E/E-2.507]
≥ 80%: pest or weed control at 200 ppm [1] | inhibition of growth at up to 200 µg/mL (Glomerella lagenarium) | inhibition of growth at up to 200 µg/mL [2] | pest or weed control at 200 ppm (Pyrenophora teres) | pest or weed control at 200 ppm [3]

C/C(=N\OCC(C)(C)CO/N=C1\CCCc2ccc(C)nc21)c1cccc(Br)n1 [E/E-2.508]
≥ 80%: pest or weed control at 200 ppm [1] | inhibition of growth at up to 200 µg/mL (Glomerella lagenarium) | inhibition of growth at up to 200 µg/mL [2] | pest or weed control at 200 ppm [3]

C=C(CO/N=C(\C)c1cccc(C)n1)CO/N=C1\CCCc2ccc(C)nc21 [E/E-3.002]
≥ 80%: pest or weed control at 200 ppm [1] | inhibition of growth at up to 200 µg/mL (Glomerella lagenarium) | inhibition of growth at up to 200 µg/mL [2] | pest or weed control at 200 ppm (Pyrenophora teres) | pest or weed control at 200 ppm [3]

C/C(=N\OCC1(CO/N=C2\CCCc3ccc(C)nc32)CC1)c1cc(C)cc(C)n1 [E/E-5.167]
≥ 80%: pest or weed control at 200 ppm [1] | inhibition of growth at up to 200 µg/mL (Glomerella lagenarium) | inhibition of growth at up to 200 µg/mL [2] | pest or weed control at 200 ppm (Pyrenophora teres) | pest or weed control at 200 ppm [3]
